# Experimental data taken from patent US20250230193A1, “CYCLIC COMPOUND HAVING SELECTIVE KRAS INHIBITORY EFFECT ON HRAS AND NRAS” (CHUGAI SEIYAKU KABUSHIKI KAISHA, priority 2022, published 2025).
# What was measured:
# [1] = target: GDP-bound NRAS wild-type protein (Homo sapiens, UniProt P01111); experiment: Binding to NRAS by surface plasmon resonance (SPR), Single Cycle Kinetics; details: SPR; KD ratio class
# [2] = target: GDP-bound HRAS wild-type protein (Homo sapiens, UniProt P01112); experiment: Binding to HRAS by surface plasmon resonance (SPR), Single Cycle Kinetics; details: SPR; KD ratio class
# Chain of GDP-bound HRAS wild-type protein (P01112 whole entry): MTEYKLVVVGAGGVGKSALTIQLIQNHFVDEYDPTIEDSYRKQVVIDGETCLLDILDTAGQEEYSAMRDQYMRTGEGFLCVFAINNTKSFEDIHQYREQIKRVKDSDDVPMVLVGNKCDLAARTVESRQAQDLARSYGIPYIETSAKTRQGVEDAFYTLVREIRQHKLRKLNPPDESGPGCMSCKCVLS
# [3] = system: human lung cancer strain NCI-H441; experiment: cells; details: NCI-H441, 96 h, read-out: NCI-H441 IC50 (nM)
# Chain of GDP-bound NRAS wild-type protein (P01111 whole entry): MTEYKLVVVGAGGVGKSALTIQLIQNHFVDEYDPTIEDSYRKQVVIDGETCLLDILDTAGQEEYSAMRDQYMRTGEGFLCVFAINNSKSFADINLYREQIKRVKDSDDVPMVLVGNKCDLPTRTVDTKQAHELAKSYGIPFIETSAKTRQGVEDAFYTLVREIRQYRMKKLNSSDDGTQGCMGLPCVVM
SMILES,NRAS/KRAS (ratio of KD value for GDP-bound NRAS wild-type protein to KD value for KRAS) [1],HRAS/KRAS (ratio of KD value for GDP-bound HRAS wild-type protein to KD value for KRAS) [2],IC50 [3] [nM]
CCO[C@@H]1C[C@H]2C(=O)NC3(CCC3)C(=O)N(C)[C@@H](C3CCCC3)C(=O)N(C)[C@H](C(=O)N(C)C)CC(=O)N(C)[C@@H](CC3CCCC3)C(=O)N[C@@H]([C@@H](C)CC)C(=O)N(C)CC(=O)N(C)[C@H]3C/C=C\CCN(C3=O)[C@@H](Cc3ccc(C)cc3)C(=O)N(C)CC(=O)N[C@@H](CCc3cc(F)c(Cl)c(F)c3)C(=O)N2C1 [PP1486],A (a compound having 10 or more and less than 20 is denoted as A),A (a compound having 10 or more and less than 20 is denoted as A),15
CCO[C@@H]1C[C@H]2C(=O)NC3(CCC3)C(=O)N(C)[C@@H](C3CCCC3)C(=O)N(C)[C@H](C(=O)N3CCCC3)CC(=O)N(C)[C@@H](CC3CC3)C(=O)N[C@@H]([C@@H](C)CC)C(=O)N(C)CC(=O)N(C)[C@H]3C/C=C\CCN(C3=O)[C@@H](Cc3ccc(C)cc3)C(=O)N(C)CC(=O)N[C@@H](CCc3cc(F)c(C(F)(F)F)c(F)c3)C(=O)N2C1 [PP1409],A (a compound having 10 or more and less than 20 is denoted as A),A (a compound having 10 or more and less than 20 is denoted as A),43.5
CCO[C@@H]1C[C@H]2C(=O)NC3(CCC3)C(=O)N(C)[C@@H](C3CCCC3)C(=O)N(C)[C@H](C(=O)N3CCOCC3)CC(=O)N(C)[C@@H](CC)C(=O)N[C@@H]([C@@H](C)CC)C(=O)N(C)CC(=O)N(C)[C@H]3CC[C@@H](C)CN(C3=O)[C@@H](Cc3ccc(C(F)(F)F)cc3)C(=O)N(C)CC(=O)N[C@@H](CCc3cc(F)c(C(F)(F)F)c(F)c3)C(=O)N2C1 [PP1372],B (a compound having 3 or more and less than 10 is denoted as B),B (a compound having 3 or more and less than 10 is denoted as B),5
CCO[C@@H]1C[C@H]2C(=O)NC3(CC(C)(C)C3)C(=O)N(C)[C@@H](C3CCCC3)C(=O)N(C)[C@H](C(=O)N(CC)CC)CC(=O)N(C)[C@@H](CC)C(=O)N[C@@H]([C@@H](C)CC)C(=O)N(C)CC(=O)N(C)[C@H]3C/C=C\CCN(C3=O)[C@@H](Cc3ccc(C(F)(F)F)cc3)C(=O)N(C)CC(=O)N[C@@H](CCc3cc(F)c(C(F)(F)F)c(F)c3)C(=O)N2C1 [PP1580],A (a compound having 10 or more and less than 20 is denoted as A),A (a compound having 10 or more and less than 20 is denoted as A),9.7
CC[C@H](C)[C@@H]1NC(=O)[C@H](CC)N(C)C(=O)C[C@@H](C(=O)N2CCOCC2)N(C)C(=O)[C@H](C2CCCC2)N(C)C(=O)C2(CCCC2)NC(=O)[C@@H]2CCCN2C(=O)[C@H](CCc2cc(F)c(C(F)(F)F)c(F)c2)NC(=O)CN(C)C(=O)[C@H](Cc2ccc(C(F)(F)F)cc2)N2C[C@H](C)[C@H](C)C[C@@H](C2=O)N(C)C(=O)CN(C)C1=O [PP1365],A (a compound having 10 or more and less than 20 is denoted as A),B (a compound having 3 or more and less than 10 is denoted as B),4.2
CCO[C@@H]1C[C@H]2C(=O)NC3(CCC3)C(=O)N(C)[C@@H](C(CC)CC)C(=O)N(C)[C@H](C(=O)N(C)C)CC(=O)N(C)[C@@H](C)C(=O)N[C@@H]([C@@H](C)CC)C(=O)N(C)CC(=O)N(C)[C@H]3C/C=C\CCN(C3=O)[C@@H](Cc3ccc(C(F)(F)F)cc3)C(=O)N(C)CC(=O)N[C@@H](CCc3ccc(Cl)c(Cl)c3)C(=O)N2C1 [PP1214],AA (a compound having 20 or more is denoted as AA),A (a compound having 10 or more and less than 20 is denoted as A),93.4
CCO[C@@H]1C[C@H]2C(=O)NC3(CCC3)C(=O)N(C)[C@@H](C3CCCC3)C(=O)N(C)[C@H](C(=O)N3CCOCC3)CC(=O)N(C)[C@@H](CC(C)C)C(=O)N[C@@H]([C@@H](C)CC)C(=O)N3CC[C@H]3C(=O)N(C)[C@H]3C[C@@H](C)[C@@H](C)CN(C3=O)[C@@H](Cc3ccc(C(F)(F)F)cc3)C(=O)N(C)CC(=O)N[C@@H](CCc3ccc(C(F)(F)F)c(Cl)c3)C(=O)N2C1 [PP1361],A (a compound having 10 or more and less than 20 is denoted as A),B (a compound having 3 or more and less than 10 is denoted as B),6.2
CCO[C@@H]1C[C@H]2C(=O)NC3(CCC3)C(=O)N(C)[C@@H](C3CCCC3)C(=O)N(C)[C@H](C(=O)N(C)C)CC(=O)N(C)[C@@H](CC3CCCC3)C(=O)N[C@@H]([C@@H](C)CC)C(=O)N(C)CC(=O)N(C)[C@H]3C/C=C\CCN(C3=O)[C@@H](Cc3ccc(F)cc3)C(=O)N(C)CC(=O)N[C@@H](CCc3ccc4sccc4c3)C(=O)N2C1 [PP1390],A (a compound having 10 or more and less than 20 is denoted as A),A (a compound having 10 or more and less than 20 is denoted as A),305
CCO[C@@H]1C[C@H]2C(=O)NC3(CCC3)C(=O)N(C)[C@@H](C3CCCC3)C(=O)N(C)[C@H](C(=O)N(C)C)CC(=O)N(C)[C@@H](CC(C)C)C(=O)N[C@@H]([C@@H](C)CC)C(=O)N(C)CC(=O)N(C)[C@H]3C/C=C\CCN(C3=O)[C@@H](Cc3ccc(C(F)(F)F)cc3)C(=O)N(C)CC(=O)N[C@@H](CCc3cc(F)c(Cl)c(F)c3)C(=O)N2C1 [PP1263],A (a compound having 10 or more and less than 20 is denoted as A),A (a compound having 10 or more and less than 20 is denoted as A),18.9
CC[C@H](C)[C@@H]1NC(=O)[C@H](CC2CC2)N(C)C(=O)C[C@@H](C(=O)N(CC)CC)N(C)C(=O)[C@H](C2CCCC2)N(C)C(=O)C2(CC(C)(C)C2)NC(=O)[C@@H]2C[C@@H](F)CN2C(=O)[C@H](CCc2cc(F)c(C(F)(F)F)c(F)c2)NC(=O)CN(C)C(=O)[C@H](Cc2ccc(C(F)(F)F)cc2)N2CC/C=C\C[C@@H](C2=O)N(C)C(=O)CN(C)C1=O [PP1571],A (a compound having 10 or more and less than 20 is denoted as A),A (a compound having 10 or more and less than 20 is denoted as A),6.8
CCO[C@@H]1C[C@H]2C(=O)NC3(CCCC3)C(=O)N(C)[C@@H](C(CC)CC)C(=O)N(C)[C@H](C(=O)N3CCCC3)CC(=O)N(C)[C@@H](C)C(=O)N[C@@H]([C@@H](C)CC)C(=O)N(C)CC(=O)N(C)[C@H]3C/C=C\CCN(C3=O)[C@@H](CC3CCC(F)(F)CC3)C(=O)N(C)CC(=O)N[C@@H](CCc3cc(F)c(C(F)(F)F)c(F)c3)C(=O)N2C1 [PP1437],A (a compound having 10 or more and less than 20 is denoted as A),A (a compound having 10 or more and less than 20 is denoted as A),220
CC[C@H](C)[C@@H]1NC(=O)[C@H](CC2CCCC2)N(C)C(=O)C[C@@H](C(=O)N(C)C)N(C)C(=O)[C@H](C2CCCC2)N(C)C(=O)C2(CCC2)NC(=O)[C@@H]2C[C@@H](F)CN2C(=O)[C@H](CCc2cc(F)c(C(F)(F)F)c(F)c2)NC(=O)CN(C)C(=O)[C@H](Cc2ccc(C(F)(F)F)cc2)N2CC/C=C\C[C@@H](C2=O)N(C)C(=O)CN(C)C1=O [PP1502],A (a compound having 10 or more and less than 20 is denoted as A),A (a compound having 10 or more and less than 20 is denoted as A),2
CCO[C@@H]1C[C@H]2C(=O)NC3(CCCCC3)C(=O)N(C)[C@@H](C3CCCC3)C(=O)N(C)[C@H](C(=O)N(C)C)CC(=O)N(C)[C@@H](CC)C(=O)N[C@@H]([C@@H](C)CC)C(=O)N(C)CC(=O)N(C)[C@H]3C/C=C\CCN(C3=O)[C@@H](Cc3ccc(C(F)(F)F)cc3)C(=O)N(C)CC(=O)N[C@@H](CCc3cc(F)c(C(F)(F)F)c(F)c3)C(=O)N2C1 [PP1277],A (a compound having 10 or more and less than 20 is denoted as A),A (a compound having 10 or more and less than 20 is denoted as A),79.8
CC[C@H](C)[C@@H]1NC(=O)[C@H](CC2CC2)N(C)C(=O)C[C@@H](C)N(C)C(=O)[C@H](C2CCCC2)N(C)C(=O)C2(CCC2)NC(=O)[C@H](CCC(F)F)N(C)C(=O)[C@H](CCc2cc(F)c(C(F)(F)F)c(F)c2)NC(=O)CN(C)C(=O)[C@H](Cc2ccc(C(F)(F)F)cc2)N2CC/C=C\C[C@@H](C2=O)N(C)C(=O)CN(C)C1=O [PP1404],A (a compound having 10 or more and less than 20 is denoted as A),A (a compound having 10 or more and less than 20 is denoted as A),498
CCO[C@@H]1C[C@H]2C(=O)NC3(CCC3)C(=O)N(C)[C@@H](C(CC)CC)C(=O)N(C)[C@H](C)CC(=O)N(C)[C@@H](CC(C)C)C(=O)N[C@@H]([C@@H](C)CC)C(=O)N(C)CC(=O)N(C)[C@H]3C/C=C\CCN(C3=O)[C@@H](Cc3ccc(F)cc3)C(=O)N(C)CC(=O)N[C@@H](CCc3cc(F)c(C(F)(F)F)c(F)c3)C(=O)N2C1 [PP1525],A (a compound having 10 or more and less than 20 is denoted as A),A (a compound having 10 or more and less than 20 is denoted as A),132
